Experimental findings from article PMC6381124, “Aplysinopsin-type and Bromotyrosine-derived Alkaloids from the South China Sea Sponge Fascaplysinopsis reticulata” (Scientific Reports, 2019) are described below.

In data set [1] the test system is human cervical cancer (HeLa) cell lines. As to the kind of experiment: Cytotoxicity assay (MTT method) against HeLa cell lines. It counts as cell-based. The note with it: HeLa cells. The procedure: (§1) The cytotoxicity assay of the isolated compounds were evaluated against human lung carcinoma (A549), human cervical cancer (HeLa), human leukemia (K562), and human T-cell leukemia (Jurkat) cell lines using the MTT method with Doxorubicin as the positive control.
A general note: Tetrazolium dyes change colour on reduction, which living cells bring about.

Data set [2] is described as follows: Cytotoxicity assay (MTT method) against Jurkat cell lines. It counts as cell-based. The following applies: human, Jurkat cells (human T-cell leukemia), Doxorubicin as positive control. As for the experimental part:
as §1

For `CN1C(=O)N(C)C(O)(CC2(O)C(=O)Nc3ccccc32)C1=O` (single isomer, unassigned; (+)) [(+)-3, (+)-oxoaplysinopsin C], inhibition in data set [1] was half-maximal at 27 µM (IC50).
On to `CN1C(=O)N(C)C(O)(CC2(O)C(=O)Nc3ccccc32)C1=O` (single isomer, unassigned; (-)) [(−)-3, (−)-oxoaplysinopsin C], for which the IC50 (usually the concentration that inhibits the measured activity by half) in data set [1] came to 61.6 µM.
In data set [2], `COC(=O)NCCCCCNC(=O)C1=NO[C@]2(C=C(Br)C(OC)=C(Br)[C@@H]2O)C1` [Compound 19, Subereamolline D] came in with an IC50 of 0.88 µM.
